Results on one molecule are retold here after patent publication US20090306093A1, “METHOD FOR TREATING PATIENT HAVING BENIGN PROSTATE HYPERPLASIA” (KAOHSIUNG MEDICAL UNIVERSITY, priority 2008, published 2009).

Structures are written as SMILES.

One experiment has as its target T1, a1D-adrenoceptor (Rattus norvegicus, UniProt P23944).
T1 construct: The submaxillary glands, spleen, and aorta of rats were separately homogenized; from tissue; host or cells: Wistar rat aorta membranes
T1 sequence (P23944 1-561): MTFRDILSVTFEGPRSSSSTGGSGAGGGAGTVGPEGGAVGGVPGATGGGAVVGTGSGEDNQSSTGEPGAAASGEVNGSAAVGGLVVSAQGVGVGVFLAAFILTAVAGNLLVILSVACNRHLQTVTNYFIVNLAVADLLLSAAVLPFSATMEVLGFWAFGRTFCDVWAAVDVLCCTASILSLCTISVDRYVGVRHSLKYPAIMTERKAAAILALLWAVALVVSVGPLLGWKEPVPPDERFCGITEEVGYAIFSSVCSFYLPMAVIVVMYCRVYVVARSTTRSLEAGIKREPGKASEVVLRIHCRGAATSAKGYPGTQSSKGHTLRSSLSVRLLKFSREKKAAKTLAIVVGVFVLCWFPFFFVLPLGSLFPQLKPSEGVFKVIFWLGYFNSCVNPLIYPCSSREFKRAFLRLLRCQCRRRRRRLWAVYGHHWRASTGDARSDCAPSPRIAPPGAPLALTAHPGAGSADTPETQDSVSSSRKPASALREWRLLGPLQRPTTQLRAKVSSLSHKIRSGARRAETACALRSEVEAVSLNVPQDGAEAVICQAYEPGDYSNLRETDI
The experiment can be described thus: [3H]-prazosin competition binding, rat aorta membranes. The conditions noted are these: read-out: Receptor Affinity (pKi) a1D (converted). As for the experimental part:
(§1) Wistar rats were obtained from National Laboratory Animal Breeding and Research Center (Taipei, Taiwan) and housed under a constant temperature and controlled illumination. The submaxillary glands, spleen, and aorta of rats were separately homogenized for 30 seconds with a Kinematica polytron in 20 volumes of ice-cold TE buffer (10 mM Tris HCl, 1 mM EDTA, 0.1 mM ascorbic acid, pH 7.4). The homogenate was filtered under pressure through muslin and the filtrate was centrifuged at 1,000 g for 10 minutes. The supernatant was centrifuged again at 10,000 g for 12 minutes at 4° C. The second supernatant was centrifuged at 30,000 g for 15 minutes at 4° C., and the final pellet was resuspended in the assay buffer (75 mM Tris HCl, 25 mM MgCl2, pH 7.4). Protein content was determined by Bradford's method.
(§2) [^3H]-prazosin, KMUP-1 and membranes (200-300 μg) were incubated for 60 minutes at 25° C. with or without the addition of nonspecific binding agents, in a 75 mM Tris HCl buffer with 25 mM MgCl2, making a final volume of 500 μL. In this experiment, non-specific binding was defined by use of 10 μM phentolamine. […] Membrane-bound radioligand trapped in the filters was counted in a Beckman LS6500 scintillation system (Fullerton, Calif.) with an efficiency of 45%. In each experiment, nonspecifically bound radioligand agents were measured by incubating membrane protein. […]

The next experiment addresses T2, a1B-adrenoceptor (Rattus norvegicus, UniProt P15823).
T2 construct: The submaxillary glands, spleen, and aorta of rats were separately homogenized; from tissue; host or cells: Wistar rat spleen membranes
T2 sequence (P15823 1-515): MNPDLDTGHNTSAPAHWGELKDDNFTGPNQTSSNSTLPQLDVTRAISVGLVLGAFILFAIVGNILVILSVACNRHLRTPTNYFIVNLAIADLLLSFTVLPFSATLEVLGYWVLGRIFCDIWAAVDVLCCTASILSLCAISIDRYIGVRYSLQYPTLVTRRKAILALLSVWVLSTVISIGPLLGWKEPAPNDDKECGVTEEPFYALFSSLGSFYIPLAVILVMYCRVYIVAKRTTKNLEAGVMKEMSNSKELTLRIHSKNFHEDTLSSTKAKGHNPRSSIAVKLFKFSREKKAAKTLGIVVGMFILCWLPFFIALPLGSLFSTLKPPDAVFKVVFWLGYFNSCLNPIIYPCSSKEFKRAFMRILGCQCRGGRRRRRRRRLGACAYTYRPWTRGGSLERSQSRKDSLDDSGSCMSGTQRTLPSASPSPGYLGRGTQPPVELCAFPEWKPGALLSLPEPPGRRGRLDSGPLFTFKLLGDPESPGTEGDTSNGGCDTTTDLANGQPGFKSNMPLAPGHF
Kind of experiment: [3H]-prazosin competition binding, rat spleen membranes. As to conditions: read-out: Receptor Affinity (pKi) a1B (converted). How it is done:
as §1, §2

The next experiment concerns the target T3, a1A-adrenoceptor (Rattus norvegicus, UniProt P43140).
T3 construct: The submaxillary glands, spleen, and aorta of rats were separately homogenized; from tissue; host or cells: Wistar rat submaxillary gland membranes
T3 sequence (P43140 1-466): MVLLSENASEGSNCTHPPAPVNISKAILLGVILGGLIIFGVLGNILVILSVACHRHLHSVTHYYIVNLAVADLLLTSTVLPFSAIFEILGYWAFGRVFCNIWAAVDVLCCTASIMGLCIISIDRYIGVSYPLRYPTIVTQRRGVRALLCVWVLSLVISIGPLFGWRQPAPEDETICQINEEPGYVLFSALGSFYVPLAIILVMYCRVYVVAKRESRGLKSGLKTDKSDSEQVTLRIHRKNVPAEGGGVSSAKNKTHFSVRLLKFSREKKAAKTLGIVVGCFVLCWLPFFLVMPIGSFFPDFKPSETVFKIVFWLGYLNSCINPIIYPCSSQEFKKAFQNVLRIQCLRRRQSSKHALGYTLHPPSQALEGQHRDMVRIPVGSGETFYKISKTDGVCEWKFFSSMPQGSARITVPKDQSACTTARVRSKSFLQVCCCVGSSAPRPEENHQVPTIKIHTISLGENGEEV
The experiment can be described thus: [3H]-prazosin competition binding, rat submaxillary gland membranes. How it is done: as §1
[^3H]-prazosin, KMUP-1 and membranes (200-300 μg) were incubated for 60 minutes at 25° C. with or without the addition of nonspecific binding agents, in a 75 mM Tris HCl buffer with 25 mM MgCl2, making a final volume of 500 μL. In this experiment, non-specific binding was defined by use of 10 μM phentolamine. In competitive-binding experiments, the competing agent was added directly to the incubation mixture. The incubation was terminated by adding 1 mL of ice cold assay buffer followed by immediate filtration through Whatman GF/C glass fiber filters supported on a 12-port filter manifold (Whatman Int. Ltd, Springfield Mill, Maidstone, UK). The filters were immediately washed 3 times with 5 mL of ice-cold assay buffer and dried in an oven at 60° C. for 2 hours before adding 5 mL of Triton-toluene based scintillation fluid. Membrane-bound radioligand trapped in the filters was counted in a Beckman LS6500 scintillation system (Fullerton, Calif.) with an efficiency of 45%. In each experiment, nonspecifically bound radioligand agents were measured by incubating membrane protein. Specific binding was then obtained by deducting this value from the total binding of radioligand agents for each sample.

In the next experiment the test system is cAMP. Kind of experiment: Determination of cAMP in rat isolated prostate (radioimmunoassay). The conditions noted are these: for cAMP levels: 1 hour. How it is done: Isolated prostate strips from Wistar rats were prepared to determine prostate levels of cGMP and cAMP. Briefly, prostate strips were respectively incubated with KMUP-1 (10-100 μM), sildenafil (100 μM), and zaprinast (100 μM) in 10 mL Tyrode solution aerated with 95% O2 and 5% CO2 for 1 hour. To examine the possible mechanisms of action of KMUP-1, the rat prostate was pretreated with ODQ (10 μM, sGC inhibitor) and SQ22536 (9-(tetrahydro-2-furanyl)-9H-purin-6-amine, 10 μM, adenylyl cyclase inhibitor) for 30 minutes before KMUP-1 was added. After the incubation, the prostate tissues were extracted with 1 mL of 0.1 N HCl. The extracts were then lyophilized for a further measurement of cyclic GMP or cyclic AMP of each sample, using commercially available radioimmunoassay kits (Amersham Pharmacia Biotech, Buckinghamshire, England).

For `Cn1c(=O)c2c(ncn2CCN2CCN(c3ccccc3Cl)CC2)n(C)c1=O` [KMUP-1, 7-[2-[4-(2-Chlorobenzene)piperazinyl]ethyl]-1,3-dimethyl xanthine], the Ki was 20.4 nM at a1D-adrenoceptor; 115 nM at a1B-adrenoceptor; 20.4 nM at a1A-adrenoceptor (rat submaxillary glands, [3H]-prazosin, read-out: Receptor Affinity (pKi) a1A (converted)). Further, the “Selective Ratio a1A/a1B” value at a1A-adrenoceptor is 5. Moreover, the “Selective Ratio a1A/a1D” value on a1A-adrenoceptor was found to be 1. In addition, the cAMP levels in the experiment on cAMP (10 μM) is on record as 1.74±0.51 pmol mg^−1 protein; with cAMP (100 μM), 2.82±0.42 pmol mg^−1 protein. Further, the “accumulation of cAMP” value in the experiment with cAMP (KMUP-1 100 μM in the presence of SQ22536 10 μM) was 2.16±0.79 pmol mg^−1 protein.
